What was measured:
[1] = tested on: microfilaricidal activity; details: cited from earlier work
[2] = tested on: LPS-induced pulmonary neutrophilia and emesis in the conscious ferret; experiment: In vivo Assay 4: therapeutic index of orally-administered PDE4 inhibitors in the conscious ferret
Method: In vivo Assay 4. Evaluation of Therapeutic Index of Orally-administered PDE 4 Inhibitors in the Conscious Ferret
PDE4 inhibitors are prepared for oral p.o.) administration by dissolving in a fixed volume (1 ml) of acetone and then adding cremophor to 20% of the final volume. Acetone is evaporated by directing a flow of nitrogen gas onto the solution. Once the acetone is removed, the solution is made up to final volume with distilled water. LPS is dissolved in phosphate buffered saline.
Male ferrets (Mustela Pulorius Furo, weighing 1-2 kg) are transported and allowed to acclimatise for not less than 7 days. The diet comprises SDS diet C pelleted food given ad lib with Whiskers™ cat food given 3 times per week. The animals are supplied with pasteurised animal grade drinking water changed daily.
PDE4 inhibitors are administered orally (p.o.), using a dose volume of 1 ml/kg.
Ferrets are fasted overnight but allowed free access to water. The animals are orally dosed with vehicle or PDE 4 inhibitor using a 15 cm dosing needle that is passed down the back of the throat into the oesophagus. After dosing, the animals are returned to holding cages fitted with perspex doors to allow observation, and given free access to water. The animals are constantly observed and any emetic episodes (retching and vomiting) or behavioural changes are recorded. […]
Thirty minutes after oral dosing with compound or vehicle control, the ferrets are placed into sealed perspex containers and exposed to an aerosol of LPS (30 μg/ml) for 10 minutes. […] All emetic episodes and behavioural changes are recorded.
Six hours after LPS exposure the animals are killed by overdose of sodium pentobarbitone administered intraperitoneally. […] From this, the total number of neutrophils in the BAL sample is determined. […]
b) Emetic episodes—the number of vomits and retches are counted to determine the dose of PDE4 inhibitor that gives a 20% incidence of emesis (D20).
c) A therapeutic index (TI), using this assay, is then calculated for each PDE4 inhibitor using the following equation: […]

| Compound | microfilaricidal activity [1] | Ferret TI ([2]; D20/D50, p.o.) | D20 for emesis ([2]; ferret, p.o., dose giving 20% incidence of emesis) [mg/kg] | D50 for ferret neutrophilia ([2]; ferret, p.o., dose giving 50% inhibition of LPS-induced pulmonary neutrophilia) [mg/kg] |
| --- | --- | --- | --- | --- |
| Oc1c(C2=NCCc3ccccc32)cnc2c1c(-c1ccccc1)nn2-c1ccccc1 [4-hydroxy-1,3-diphenyl-5-(3′,4′-dihydroisoquinol-1′-yl)-pyrazolo[3,4-b]pyridine, reference compound] | no significant microfilaricidal activity |  |  |  |
| CC1Cc2ccccc2C(c2cnc3c(c(-c4ccccc4)nn3-c3ccccc3)c2O)=N1 (centres unmarked) | no significant microfilaricidal activity |  |  |  |
| O=C(Nc1c(Cl)cncc1Cl)c1ccc(OC(F)F)c(OCC2CC2)c1 [roflumilast] |  | 1.1 | 0.46 | 0.42 |

From patent publication US7528148B2, “Pyrazolo[3,4-B]pyridine compounds, and their use as phosphodiesterase inhibitors” (Glaxo Group Limited, priority 2002, dated 2009)
